Laboratory results from patent US5843966A, “Piperidine derivatives” (Glaxo Group Limited, priority 1993, dated 1998).
Counter-ions that a name gives are not always drawn.

Tested on: radiation-induced emesis in the ferret
Experiment: Inhibition of radiation-induced emesis in the ferret
Type: in vivo
Details: compound administered 1.5 hours prior to irradiation
Protocol: In this model of emesis the onset of retching and vomiting occurs approximately 20 minutes after whole body irradiation (2 Grey.ident.200 Rads). The test compound is administered (e.g. i.p, p.o., i.v., s.c) immediately after irradiation and its effect on emesis determined by comparison with appropriate controls.
Alternatively, the test compounds may be administered before irradiation or before treatment with an emetogen, for example 1.5, 3 or 6 hours before irradiation.

SMILES | inhibition of radiation-induced emesis (0.03 mg/kg s.c.) | inhibition of radiation-induced emesis (0.1 mg/kg s.c.)
COc1ccc(-n2nnnc2C(F)(F)F)cc1CN[C@H]1CCCN[C@H]1c1ccccc1 [Example 7, [2-Methoxy-5-(5-trifluoromethyl-tetrazol-1-yl)-benzyl]-(2S,3S]-2-phenyl-piperidin-3-yl)-amine dihydrochloride] | inhibited radiation-induced emesis | 
COc1ccc(-n2cnnn2)cc1CN[C@H]1CCCN[C@H]1c1ccccc1 [Example 2] |  | inhibited radiation-induced emesis
